According to US20220064291A1, “METHODS OF USING BUTYROPHILIN ANTIBODIES FOR TREATING HIV INFECTION” (Merck Sharp & Dohme Corp., priority 2018, published 2022):

How the values were obtained:
[1] = system: HIV latent primary CD4+ T cells; test: Competition with recombinant BTN-Fc proteins against anti-BTN3A 20.1-mediated virus reactivation; format: cell-based, human; conditions: recombinant Fc proteins 0.03-10 μg/ml; 24 h; FIG. 6
Method: To confirm the specificity of anti-BTN3A antibody-mediated activity on latent virus activity and T cell activation, we performed competition experiments using recombinant BTN proteins. Briefly, 96-well flat bottom tissue culture plates (Corning) were coated with anti-CD3 (1 μg/ml) and anti-BTN3A 20.1 antibody (5 μg/ml) in PBS for 16 h in a 4° C. refrigerator. The next day, antibodies were aspirated using a multichannel pipette and various concentrations of recombinant BTN-Fc proteins BTN3A1-Fc and BTN3A2-Fc (10 μg/ml, 3 μg/ml, 1 μg/ml, 0.3 μg/ml, 0.1 μg/ml, and 0.03 μg/ml) were added to antibody coated plates in 2% FBS (in PBS). BTN2A2-Fc and human IgG Fc were used as controls. After 30 min incubation at RT recombinant Fc proteins were aspirated using a multichannel pipette. Next, HIV latent primary CD4+ T cells from two donors were added to the antibody coated plates in duplicates at 125,000 cells/well in 200 ul of primary cell media (RPMI with 10% FBS, 50 μg/ml Primocin™). At 24h post treatment virus reactivation was measured using a Nano-Glo® Luciferase Assay (Promega) (FIG. 6).

human CD4+ T cells = test: Inhibition of anti-CD3 (TCR)-mediated T cell activation by recombinant butyrophilin-Fc proteins, bead- and plate-based assays; conditions: anti-CD3 stimulation, FIG. 3
Method: To characterize the role of butyrophilins in regulating T cell responses, T cell assays were performed using recombinant human butyrophilin-Fc proteins. Specifically, we assessed the role of butyrophilins in inhibiting T cell receptor (TCR)-mediated T cell activation by anti-CD3 antibody (clone OKT3). Experiments were performed in bead- and plate-based formats.
Briefly, PBMCs were isolated from healthy human donors (Biological Specialty Corporation, Colmar, Pa.). To generate T cell blasts, PBMCs were treated with IL-2 (4u/ml) and PHA (1 μg/ml) in RPMI media containing 10% Fetal bovine serum (Gibco, Gaithersburg, Md.), penicillin (100U/ml)/streptomycin (0.1 mg/ml) (Gibco, Gaithersburg, Md.), and L-Glutamine (2 mM) (Gibco, Gaithersburg, Md.) at 37° C. in a CO2 incubator for 7 days. Fresh media was added once every 3 days. […]
4. […] T cell activation was measured based on IFNγ expression using a V-PLEX proinflammatory panel 1 human assay (Meso Scale Discovery, Rockville, Md.) (FIG. 3A-C).
Sterile 96-well flat bottom tissue culture plates (Corning) were coated with 1 μg/ml of anti-CD3 antibody (Clone OKT3, BD Pharmingen) in PBS+/− the following Fc-fusion proteins: BTN2A2-Fc, BTN3A1-Fc, or human IgG Fc. […] T cell activation was measured based on IFNγ expression using a V-PLEX proinflammatory panel 1 human assay (Meso Scale Discovery, Rockville, Md.) (FIG. 3D).

“BTN3A1-Fc: recombinant human butyrophilin-Fc fusion protein, R&D systems” was tested. Which “inhibition of anti-BTN3 20.1 Ab-mediated latent HIV activation and T cell activation” value [1] did it give?
Its value is “dose-dependent inhibition”.

What about the “activation of human CD4+ T cells (IFNγ production, T cell proliferation, IL-2 production)” value (human CD4+ T cells) of the same substance?
The value was “block activation”.
